Among the data in PubChem BioAssay AID330 (DTP/NCI, 2004) are T/C values, retold here.

This assay relates to P388 leukemia ip, CD2F1 mice, survival T/C. Put plainly: NCI In Vivo Anticancer Drug Screen. Data for tumor model P388 Leukemia (intraperitoneal) in CD2F1 (CDF1) mice. The note with it: endpoint: median survival time, higher = longer survival. Summed up:
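Mice carrying the transplanted tumor received test compound or vehicle. Survival was recorded in each group, and the value is the treated-group measurement divided by that of the vehicle-treated control group.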

Where [1] appears, read: dose: 6.25 mg/kg/injection, schedule: Q01DX009 (ip), vehicle: Klucel (hydroxypropylcellulose) (HPC).
Where [2] appears, read: dose: 12.5 mg/kg/injection, schedule: Q01DX009 (ip), vehicle: Klucel (hydroxypropylcellulose) (HPC).
Setting [3] is: dose: 50.0 mg/kg/injection, schedule: Q01DX005 (ip), vehicle: saline with Tween-80.
[4] abbreviates: dose: 100.0 mg/kg/injection, schedule: Q01DX005 (ip), vehicle: saline with Tween-80.
Where [5] appears, read: dose: 200.0 mg/kg/injection, schedule: Q01DX005 (ip), vehicle: saline with Tween-80.
[6] abbreviates: dose: 50.0 mg/kg/injection, schedule: Q01DX009 (ip), vehicle: saline.
Setting [7] is: dose: 100.0 mg/kg/injection, schedule: Q01DX009 (ip), vehicle: saline.
Setting [8] is: dose: 200.0 mg/kg/injection, schedule: Q01DX009 (ip), vehicle: saline.
[9] abbreviates: dose: 100.0 mg/kg/injection, schedule: Q04DX002 (ip), vehicle: saline with Tween-80.
[10] abbreviates: dose: 200.0 mg/kg/injection, schedule: Q04DX002 (ip), vehicle: saline with Tween-80.
Setting [11] is: dose: 12.5 mg/kg/injection, schedule: Q01DX005 (ip), vehicle: saline with Tween-80.
[12] abbreviates: dose: 25.0 mg/kg/injection, schedule: Q01DX005 (ip), vehicle: saline with Tween-80.
The mark [13] stands for this setting: dose: 60.0 mg/kg/injection, schedule: Q01DX005 (ip), vehicle: saline with Tween-80.
Where [14] appears, read: dose: 50.0 mg/kg/injection, schedule: Q01DX005 (ip), vehicle: Klucel (hydroxypropylcellulose) (HPC).
Where [15] appears, read: dose: 100.0 mg/kg/injection, schedule: Q01DX005 (ip), vehicle: Klucel (hydroxypropylcellulose) (HPC).
The mark [16] stands for this setting: dose: 120.0 mg/kg/injection, schedule: Q01DX005 (ip), vehicle: saline with Tween-80.
Setting [17] is: dose: 240.0 mg/kg/injection, schedule: Q01DX005 (ip), vehicle: saline with Tween-80.
[18] abbreviates: dose: 50.0 mg/kg/injection, schedule: Q01DX009 (ip), vehicle: saline with Tween-80.
The mark [19] stands for this setting: dose: 100.0 mg/kg/injection, schedule: Q01DX009 (ip), vehicle: saline with Tween-80.
[20] abbreviates: dose: 200.0 mg/kg/injection, schedule: Q01DX005 (ip), vehicle: Klucel (hydroxypropylcellulose) (HPC).

“And” between values parts separate entries of the source, which are not always exact repeats. Equal values may be shown once. Toxic doses and inconclusive results are not listed. Peptide text beside a SMILES is read from it.

Take `CCCCCCCCN1CSC(=S)N(c2ccc3[nH]c(=S)sc3c2)C1`: the T/C is, setting by setting: under setting [1], 94 % of control; under setting [2], 106 % of control; (dose: 25.0 mg/kg/injection, schedule: Q01DX009 (ip), vehicle: Klucel (hydroxypropylcellulose) (HPC)) 94 % of control.

On to `COc1ccc(-n2nc3c(c2-c2cccnc2)CCCc2ccccc2-3)cc1`, for which the T/C runs as follows: under setting [3], 95 % of control; under setting [4], 106 % of control; under setting [5], 101 % of control.

On to `C=C1C(=O)N2c3ccccc3C(C)(C)C2(S)C(=O)N1C` (stereo unspecified), for which the T/C runs as follows: under setting [6], 102 % of control; under setting [7], 100 % of control; under setting [8], 100 % of control.

`O=C(CBr)C1(Br)CCN(Cc2ccccc2)CC1`: the T/C is, setting by setting: (dose: 3.13 mg/kg/injection, schedule: Q01DX009 (ip), vehicle: Klucel (hydroxypropylcellulose) (HPC)) 109 % of control; under setting [1], 115 % of control; under setting [2], 109 % of control.

Regarding `CN(c1ccc(Cc2ccc(N(C)S(C)(=O)=O)cc2)cc1)S(C)(=O)=O`, the T/C was 110 % of control (dose: 50.0 mg/kg/injection, schedule: Q04DX002 (ip), vehicle: saline with Tween-80); 101 % of control under setting [9]; 94 % of control under setting [10]; 92 % of control (dose: 400.0 mg/kg/injection, schedule: Q04DX002 (ip), vehicle: saline with Tween-80).

Take `CN1N=Nc2ccccc2C1(O)c1ccc(F)cc1` (stereo unspecified): the T/C was 104 % of control under setting [3], 104 % of control under setting [4] and 107 % of control under setting [5].

For `Cc1cc[n+](C2=C(Nc3ccc(Cl)cc3C)C(=O)c3ccccc3C2=O)cc1`, the T/C reads like this: under setting [11], 109 % of control; under setting [12], 109 % of control; under setting [3], 119 % of control; under setting [13], 121 % of control.

In the case of `O=C1CCCC2=C1[Se]C1(O2)C(=O)CCCC1=O`, the T/C by setting is: (dose: 12.5 mg/kg/injection, schedule: Q01DX009 (ip), vehicle: saline) 102 % of control; (dose: 25.0 mg/kg/injection, schedule: Q01DX009 (ip), vehicle: saline) 101 % of control; under setting [6], 104 % of control and 107 % of control.

On to `C/C=C(\C)C(=O)N/N=C\C=C\c1ccccc1`, for which the T/C by setting is: (dose: 25.0 mg/kg/injection, schedule: Q01DX005 (ip), vehicle: Klucel (hydroxypropylcellulose) (HPC)) 89 % of control; under setting [14], 92 % of control; under setting [15], 89 % of control.

For `CC(C)C(C(=O)O)N(C)C(=O)c1cnc2ccccc2n1` (stereo unspecified), the T/C by setting is: under setting [13], 104 % of control; under setting [16], 97 % of control; under setting [17], 99 % of control.

In the case of `Nc1ccc2cc(S(=O)(=O)O)cc(O)c2c1N=Nc1ccc(NC(=O)c2ccc(C(=O)Nc3ccc(N=Nc4c(N)ccc5cc(S(=O)(=O)O)cc(O)c45)c(S(=O)(=O)O)c3)cc2)cc1S(=O)(=O)O`, the T/C under setting [11] is 101 % of control, the T/C under setting [12] was 96 % of control and the T/C under setting [3] was 98 % of control.

Take `COC(=O)/C=C1\C2OC(C1C(=O)OC)C1OC(C)(C)OC21` (stereo unspecified): the T/C under setting [3] is 99 % of control, the T/C under setting [4] was 103 % of control and the T/C under setting [5] was 96 % of control.

For `COc1cc2c(cc1O)c[n+](C)c1c3cc(OC)c(OC)cc3ccc21`, the T/C is, setting by setting: (dose: 7.8 mg/kg/injection, schedule: Q01DX009 (ip), vehicle: other) 107 % of control; (dose: 31.3 mg/kg/injection, schedule: Q01DX009 (ip), vehicle: other) 122 % of control; (dose: 62.5 mg/kg/injection, schedule: Q01DX009 (ip), vehicle: other) 120 % of control; (dose: 125.0 mg/kg/injection, schedule: Q01DX009 (ip), vehicle: other) 120 % of control.

As to `Cc1cnc2cc(-c3ccccc3)[nH]c2n1`, the T/C was 90 % of control (dose: 15.0 mg/kg/injection, schedule: Q01DX005 (ip), vehicle: Klucel (hydroxypropylcellulose) (HPC)); 87 % of control (dose: 30.0 mg/kg/injection, schedule: Q01DX005 (ip), vehicle: Klucel (hydroxypropylcellulose) (HPC)); 88 % of control (dose: 60.0 mg/kg/injection, schedule: Q01DX005 (ip), vehicle: Klucel (hydroxypropylcellulose) (HPC)).

With `C=CCOc1cc2c(cc1C(C)c1ccccc1OC)OCO2` (stereo unspecified), the T/C under setting [3] is 99 % of control, the T/C under setting [4] was 97 % of control and the T/C under setting [5] was 104 % of control.

Regarding `CCCCc1n(O)c(-c2ccccc2)c(C)[n+]1[O-]`, the T/C reads like this: (dose: 12.5 mg/kg/injection, schedule: Q01DX009 (ip), vehicle: saline with Tween-80) 100 % of control; (dose: 25.0 mg/kg/injection, schedule: Q01DX009 (ip), vehicle: saline with Tween-80) 92 % of control; under setting [18], 88 % of control and 91 % of control.

Turning to `CN(C)C1=NC1(C)C`, the T/C was 100 % of control under setting [6], 102 % of control under setting [7] and 91 % of control under setting [8].

Consider `N#Cc1c(C(=O)NN)cc(-c2cccc3ccccc23)[nH]c1=O`, for which the T/C reads like this: under setting [3], 107 % of control; under setting [4], 103 % of control.

As for `CC1(C)CC2(C)OCCN2C(=S)N1` (stereo unspecified), the T/C reads like this: (dose: 50.0 mg/kg/injection, schedule: Q01DX009 (ip), vehicle: Klucel (hydroxypropylcellulose) (HPC)) 100 % of control; (dose: 100.0 mg/kg/injection, schedule: Q01DX009 (ip), vehicle: Klucel (hydroxypropylcellulose) (HPC)) 90 % of control; (dose: 200.0 mg/kg/injection, schedule: Q01DX009 (ip), vehicle: Klucel (hydroxypropylcellulose) (HPC)) 89 % of control.

As for `O=c1cc(-c2ccccc2)[nH]c2c1CCCC2`, the T/C reads like this: under setting [19], 116 % of control; (dose: 400.0 mg/kg/injection, schedule: Q01DX009 (ip), vehicle: saline with Tween-80) 176 % of control and 186 % of control.

For the compound `CCOC(=O)C1C(c2cccc(OC)c2O)c2cc3c(cc2OC1(C)N1CCCC1)OCO3` (stereo unspecified), the T/C under setting [13] was 99 % of control, the T/C under setting [16] was 92 % of control and the T/C under setting [17] was 89 % of control.

Regarding `COc1ccc(C(C)(c2cc(C(C)(C)C)c(O)c(C(C)(C)C)c2)n2ccnc2)cc1` (stereo unspecified), the T/C runs as follows: under setting [3], 98 % of control; under setting [4], 94 % of control; under setting [5], 91 % of control.

Turning to `NC(Cc1cc(I)c(O)c(I)c1)C(=O)O` (stereo unspecified), the T/C is, setting by setting: under setting [18], 110 % of control; under setting [19], 108 % of control; (dose: 200.0 mg/kg/injection, schedule: Q01DX009 (ip), vehicle: saline with Tween-80) 88 % of control.

Take `O=c1[nH]c2c([N+](=O)[O-])cc(Cl)cc2nc1/C=C(\O)c1ccc2ccccc2c1`: the T/C by setting is: under setting [13], 98 % of control; under setting [16], 90 % of control; under setting [17], 99 % of control.

For the compound `C=C1CC(C)(C)CN(Cc2ccc([N+](=O)[O-])cc2)C(C(=O)OC)=C1C(=O)OC`, the T/C was 87 % of control under setting [14], 95 % of control under setting [15] and 94 % of control under setting [20].

Turning to `Cc1cc(N2CCOCC2)ccc1N=Nc1nc2ccccc2s1`, the T/C reads like this: (dose: 100.0 mg/kg/injection, schedule: Q01DX001 (ip), vehicle: saline) 89 % of control; (dose: 200.0 mg/kg/injection, schedule: Q01DX001 (ip), vehicle: saline) 88 % of control.

On to `CCC(c1ccc(OC)cc1)C(NC(=S)NCc1ccccc1)c1ccc(OC)cc1` (stereo unspecified), for which the T/C is, setting by setting: under setting [9], 94 % of control; under setting [10], 91 % of control.

In the case of `CC(C)CC(NC(=O)C(N)CCCN=C(N)N)C(=O)O` (stereo not drawn) (H-Arg-Leu-OH; configuration not given here), the T/C runs as follows: (dose: 50.0 mg/kg/injection, schedule: Q01DX005 (ip), vehicle: saline) 100 % of control; (dose: 100.0 mg/kg/injection, schedule: Q01DX005 (ip), vehicle: saline) 100 % of control; (dose: 200.0 mg/kg/injection, schedule: Q01DX005 (ip), vehicle: saline) 106 % of control.

Consider `CNC(=O)OC1=NCCN1`, for which the T/C under setting [14] is 94 % of control, the T/C under setting [15] is 100 % of control and the T/C under setting [20] is 99 % of control.
